Values after ≈ are worked out from the molar mass of the structure shown.
Legend:
Assay type in all cases: physicochemical
[1] = Slurry conversion / water activity / slurry competition at RT, solids analysed by XRPD
Protocol: Slurry conversion experiments were conducted at RT in different solvent systems. Approximately 20 mg of starting material was suspended in 0.1 mL of solvent in HPLC vials. After the suspension was stirred magnetically for 48 hours at RT, the remaining solids were isolated for XRPD analysis.

[2] = Solid-form stability on heating, vacuum dehydration and re-exposure to ambient RH (XRPD)
Protocol: CV-8972 starting material is shown in blue; CV-8972 following incubation at 90° C. for 8 hours is shown in red; and CV-8972 following incubation at 65° C. in a vacuum for 2 hours is shown in purple. To see if the small DSC endotherm at 85.3° C. corresponds to polymorphic phase transition or dehydration, XRPD was performed on Form A after storing it in an oven at 90° C. for 8 hours.
Data from starting material is shown in blue; data following incubation for 2 hours in vacuum oven are shown in red; and data from heated material that was exposed to ambient relative humidity is shown in green. To monitor Form A in its dehydrated state, it was placed in a vacuum oven at 65° C. for 2 hours followed by its XRPD analysis.

[3] = Approximate solubility of starting material at RT by stepwise solvent addition; conditions: thermodynamic from solid
Protocol: Starting with Form A, polymorph screening experiments were set up under 34 conditions using methods of slurry conversion, liquid vapor diffusion, slow evaporation, and slow cooling. The approximate solubility of starting material was determined at room temperature (RT). Accurately weighed samples of approximately 2 mg weight were added into a 3-mL glass vial. Solvents were then added step wise (50/50/200/700 μL) into the vials until the solids were dissolved or a total volume of 1 mL was reached.

[4] = Dynamic vapor sorption (DVS) with XRPD before and after
From the text: FIG. 8 is a dynamic vapor sorption isotherm plot. Cycle sorption is shown in red; cycle 1 desorption is shown in blue; and cycle 2 sorption is shown in green.
Pre-DVS data is shown in red; and post-DVS data is shown in blue.

## COc1ccc(CN2CCN(CCOC(=O)c3cccnc3)CC2)c(OC)c1OC [Form E, 2-[4-[(2,3,4-trimethoxyphenyl)methyl]piperazin-1-yl]ethyl pyridine-3-carboxylate]
[1]
  Solid form change in slurry competition between Forms D and E: converted to Form A
[1]; all conditions tested
  Solid form change in water activity analysis: converts to Form A
[2]; ambient RH, rehydration
  Solid form change on exposure to ambient temperature and humidity: partial conversion to Form A

## COc1ccc(CN2CCN(CCOC(=O)c3cccnc3)CC2)c(OC)c1OC [Form A, 2-[4-[(2,3,4-trimethoxyphenyl)methyl]piperazin-1-yl]ethyl pyridine-3-carboxylate]
[3]; CHCl3, organic solvent or mixture, CHCI3, RT
  solubility: < 1800 µg/mL
[3]; organic solvent or mixture, 1,4-Dioxane, RT
  solubility: < 1700 µg/mL
[3]; organic solvent or mixture, ACN, RT
  solubility: < 1500 µg/mL
[3]; organic solvent or mixture, Acetone, RT
  solubility: < 2000 µg/mL
[3]; organic solvent or mixture, CPME, RT
  solubility: < 1500 µg/mL
[3]; organic solvent or mixture, DCM, RT
  solubility: < 2200 µg/mL
[3]; organic solvent or mixture, DMF, RT
  solubility: 1800 to 6000 µg/mL (≈ 4.33 to 14.4 mM)
[3]; organic solvent or mixture, DMSO, RT
  solubility: 5000 to 15000 µg/mL (≈ 12 to 36.1 mM)
[3]; organic solvent or mixture, EtOAc, RT
  solubility: < 1800 µg/mL
[3]; organic solvent or mixture, EtOH, RT
  solubility: < 1700 µg/mL
[3]; organic solvent or mixture, IPA, RT
  solubility: < 2300 µg/mL
[3]; organic solvent or mixture, IPAc, RT
  solubility: < 1700 µg/mL
[3]; organic solvent or mixture, MEK, RT
  solubility: < 2000 µg/mL
[3]; organic solvent or mixture, MIBK, RT
  solubility: < 2000 µg/mL
[3]; organic solvent or mixture, MeOH, RT
  solubility: > 46000 µg/mL
[3]; organic solvent or mixture, NMP, RT
  solubility: 6700 to 20000 µg/mL (≈ 16.1 to 48.1 mM)
[3]; organic solvent or mixture, THF, RT
  solubility: < 2200 µg/mL
[3]; organic solvent or mixture, Toluene, RT
  solubility: < 2300 µg/mL
[3]; organic solvent or mixture, n-Heptane, RT
  solubility: < 1900 µg/mL
[3]; water, H2O, RT
  solubility: > 44000 µg/mL
[4]; 25° C., up to 80% RH
  Hygroscopicity (DVS): non hygroscopic
[1]; Acetone, stirred 48 hours at RT
  Solid Form after slurry conversion: Form A
[1]; Acetone/H2O (aw = 0.2, 941/59), 48 hours at RT
  Solid Form after slurry conversion: Form A
[1]; Acetone/H2O (aw = 0.4, 857/143), 48 hours at RT
  Solid Form after slurry conversion: Form A
[1]; Acetone/H2O (aw = 0.6, 726/274), 48 hours at RT
  Solid Form after slurry conversion: Form A
[1]; Acetone/H2O (aw = 0.8, 492/508), 48 hours at RT
  Solid Form after slurry conversion: Form A
[1]; H2O, 48 hours at RT
  Solid Form after slurry conversion: Form A
[1]; ambient temperature and relative humidity
  Relative stability among polymorphs: most stable
[2]; 65° C. vacuum for 2 hours
  Solid form after vacuum oven (XRPD): Form E
[2]; 90° C. for 8 hours
  Solid form after oven storage (XRPD): converts to Form E

## COc1ccc(CN2CCN(CCOC(=O)c3cccnc3)CC2)c(OC)c1OC [CV-8972, 2-[4-[(2,3,4-trimethoxyphenyl)methyl]piperazin-1-yl]ethyl pyridine-3-carboxylate]
[4]; 25° C. and 80% relative humidity (RH)
  Water uptake (DVS): < 0.2%
[4]; beyond 80% RH, possible deliquescence
  Mass change (DVS): drastic increase in the mass change
[4]; post-DVS versus pre-DVS
  XRPD of the sample after DVS: mostly similar to the starting material

— patent publication US12065410B2, “Crystal forms of 2-[4-[(2,3,4-trimethoxyphenyl)methyl]piperazin-1-yl]ethyl pyridine-3-carboxylate” (IMBRIA PHARMACEUTICALS, INC., priority 2020, dated 2024)
